The test has as its system muscle satellite cells. Put plainly: Evaluation of muscle satellite cell activating effect (ratio of BrdU positive cells). Format: cell-based, SD rat. Conditions: for Ratio of activated muscle satellite cells, Mean: 24 hours culture, BrdU positive cells / total cells, solvent control 41.3%; for muscle satellite cell activating effect: in comparison with the solvent control, result in words. On the procedure:
The muscle satellite cells activation effect can be evaluated by, for example, the following in vitro test. Specifically, muscle satellite cells are isolated from an animal and cultured in a culture medium containing test sample for 24 hours. Then, bromodeoxyuridine (BrdU) is added thereto at the final concentration of 10 μM, and the mixture is incubated for 2 hours. Next, the muscle satellite cells are fixed at 4° C. for 10 minutes with ice-cooled methanol containing 0.1% H2O2 and are subjected to DNA denaturation treatment at 37° C. for 1 hour using 2 N hydrochloric acid, and BrdU positive cells are detected by using anti-BrdU antibody as a primary antibody, HRP-conjugated anti-mouse IgG antibody as a secondary antibody, and coloring with diaminobenzidine (DAB). The ratio of BrdU positive cells to the total number of cells is calculated as the ratio of activated muscle satellite cells. It is judged with respect to the ratio of activated muscle satellite cells of the muscle building agent according to the present invention that muscle satellite cells are activated in the case where a ratio of activated muscle satellite cells is increased by a treatment with a test substrate in comparison with a solvent control. An increase to a solvent control is preferably 2% or more, more preferably 3% or more and even more preferably 5% or more.
Muscle tissues were isolated from the upper hindlimb and back of 6-month old male SD rat (from Japan SLC). The muscle tissues were trimmed of adipose and connective tissue, minced, and treated with PBS containing 1.25 mg/mL protease (Sigma) at 37° C. for 1 hour. After muscle fiber fragments and tissue debris were removed by centrifugation, the cells were seeded on plates coated with polylysine (Sigma) and fibronectin (Sigma). After the cells were cultured in 5% CO2 atmosphere at 37° C. for 24 hours, muscle satellite cells were isolated by washing with PBS. DMEM (“Dulbecco's Modified Eagle Medium”, Thermo Fisher Scientific) containing 10% horse serum (Thermo Fisher Scientific) was used as a culture media. The culture media is hereinafter abbreviated as “10% HS-DMEM”.
The casuarinin prepared in Example 1 or the stachyurin prepared in Example 2 was dissolved in water and added in 10% HS-DMEM to prepare the 10% HS-DMEM containing casuarinin or stachyurin. The culture medium of the isolated muscle satellite cells were exchanged for the 10% HS-DMEM containing casuarinin or stachyurin, and the muscle satellite cells were cultured for 24 hours. Casuarinin concentrations were adjusted to 0.01 to 1.1 μM (13 to 1000 ng/mL), and stachyurin concentrations were adjusted to 0.09 to 0.4 μM (83 to 333 ng/mL). As a solvent control, 10% HS-DMEM was used.
Bromodeoxyuridine (BrdU, Sigma) was added to the culture medium at the final concentration of 10 μM, and the mixture was incubated for 2 hours. Then, the muscle satellite cells were fixed at 4° C. for 10 minutes with ice-cooled methanol containing 0.1% H2O2 and were further subjected to DNA denaturation treatment using 2 N hydrochloric acid at 37° C. for 1 hour, and BrdU positive cells were detected by using anti-BrdU antibody (Sigma) as a primary antibody, HRP-conjugated anti-mouse IgG antibody (Sigma) as a secondary antibody, and coloring with diaminobenzidine (DAB, Sigma). The ratio of BrdU positive cells to the total number of cells was calculated as the ratio of activated muscle satellite cells. The experiments were performed in 12 independent cell cultures in the case of the solvent control, and in 3 independent cultures in each concentration in the case of casuarinin or stachyurin. Data were expressed as the mean and standard deviation. The “*” in FIGS. 1 and 2 represents that the difference to the solvent control was statistically significant at p<0.05 by Dunnett's test. […]

Regarding `O=c1oc2c(O)c(O)cc3c(=O)oc4c(O)c(O)cc1c4c23` [Ellagic acid, ellagic acid, reference compound], the “Ratio of activated muscle satellite cells, Mean” value (shortened to “Ratio”) (100 ng/mL) came to 38.3%.

As for `O=C(O[C@@H]1COC(=O)c2cc(O)c(O)c(O)c2-c2c(cc(O)c(O)c2O)C(=O)O[C@H]1[C@@H]1OC(=O)c2cc(O)c(O)c(O)c2-c2c(O)c(O)c(O)c3c2C(=O)O[C@H]1C3O)c1cc(O)c(O)c(O)c1` (stereo partly drawn) [Casuarinin, casuarinin], the “muscle satellite cell activating effect” value is reported as “significant muscle satellite cell activating effect”. Also, the “Ratio” value (0.01 μM (13 ng/mL)) was determined as 43.3%. Besides, the “Ratio” value (0.03 μM (25 ng/mL)) amounted to 44.9%. The “Ratio” value (0.05 μM (50 ng/mL)) was 51.3%. Also, for the setting “100 ng/mL”, the “Ratio” value is given as 50.8%. Besides, the “Ratio” value (0.3 μM (250 ng/mL)) was 48.8%. Moreover, the “Ratio” value (1.1 μM (1000 ng/mL)) was found to be 43.7%.

Take `O=C(O[C@@H]1COC(=O)c2cc(O)c(O)c(O)c2-c2c(cc(O)c(O)c2O)C(=O)O[C@H]1[C@@H]1OC(=O)c2cc(O)c(O)c(O)c2-c2c(O)c(O)c(O)c3c2C(=O)O[C@H]1[C@H]3O)c1cc(O)c(O)c(O)c1` [Stachyurin, stachyurin]: the “muscle satellite cell activating effect” value is recorded as “significant muscle satellite cell activating effect”. The “Ratio” value (0.09 μM (83 ng/mL)) is given as 44.7%. For the same compound, the “Ratio” value (0.4 μM (333 ng/mL)) came to 48.5%.

As to `C[C@@H]1O[C@@H](Oc2c(-c3ccc(O)c(O)c3)oc3cc(O)cc(O)c3c2=O)[C@H](O)[C@H](O)[C@H]1O` [Quercitrin, quercitrin, reference compound], the “Ratio” value (100 ng/mL) was 40.0%.

Turning to `O=C1OC[C@H]2OC(=O)c3cc(O)c(O)c(O)c3-c3c(O)c(O)c(O)c4c3C(=O)O[C@H]([C@H]3OC(=O)c5c-4c(O)c(O)c(O)c5[C@H]3O)[C@@H]2OC(=O)c2cc(O)c(O)c(O)c2-c2c1cc(O)c(O)c2O` [Castalagin, castalagin, reference compound], the “Ratio” value (100 ng/mL) is on record as 39.4%.

As to `O=C(O)c1cc(O)c(O)c(O)c1` [Gallic acid, gallic acid, reference compound], the “Ratio” value (100 ng/mL) was 37.8%.

Take `Oc1cc(O)c2c(c1)O[C@@H](c1ccc(O)c(O)c1)[C@H](O)C2` [Catechin, catechin, reference compound]: the “Ratio” value (100 ng/mL) came to 42.1%.

In the case of `O=c1c(O[C@@H]2O[C@H](CO)[C@H](O)[C@H](O)[C@H]2O)c(-c2ccc(O)c(O)c2)oc2cc(O)cc(O)c12` [Hyperin, hyperin, reference compound], the “Ratio” value (100 ng/mL) stood at 38.2%.

Take `C[C@@H]1OC(Oc2c(-c3cc(O)c(O)c(O)c3)oc3cc(O)cc(O)c3c2=O)[C@H](O)[C@H](O)[C@H]1O` (stereo partly drawn) [Myricitrin, myricitrin, reference compound]: the “Ratio” value (100 ng/mL) is 41.8%.

With `O=C(O[C@@H]1OC2COC(=O)c3cc(O)c(O)c(O)c3-c3c(cc(O)c(O)c3O)C(=O)O[C@H]2[C@@H]2OC(=O)c3cc(O)c(O)c(O)c3-c3c(cc(O)c(O)c3O)C(=O)OC12)c1cc(O)c(O)c(O)c1` (stereo partly drawn) [Casuarictin, casuarictin, reference compound], for the setting “100 ng/mL”, the “Ratio” value is listed as 39.2%.

(Values after US12357605B2, “Muscle building agent” (KANEKA CORPORATION, priority 2019, dated 2025).)
